Measurements published in patent US11510949B2, “Use of the treatment or improvement of sleep disorders by Lactobacillus brevis ProGA28 and/or its metabolites” (SYNGEN BIOTECH CO., LTD, priority 2019, dated 2022).

System: SHR rats
Assay: Sleep quality and quantity assessment in SHR rats after tube feeding (EEG/EMG sleep staging)
Format: in vivo
[1] = pure substance administered, FIG. 5

Protocol: The dosage of the test products used in the following examples is based on the daily human consumption of 8.3 mg/kg, and then according to the body surface area model coefficient of 6.2 to calculate the standard feeding dosage for rats being 52 mg/kg which is set as 1.0× dose given in the following examples.
The “sleep stage” called in the following examples includes the following three stages: awake (AW); quiet sleep (QS) which is equivalent to human non-rapid eye movement sleep (NREM) and paradoxical sleep (PS) which is equivalent to human rapid eye movement sleep (REM).
Frequency domain analysis of brain waves and myoelectric waves: each 16 seconds (1024 points) of brain wave signal acquisition is called a time window (or epoch), and is compared with 8 seconds before the next time window (50%) overlap for analysis. The fast Fourier transform is used to estimate the power spectral density and evaluate the activity of brain waves in different frequency bands. […]
Each test product was dissolved in drinking water and administered by tube feeding, the administration time was 1 hour before the light, and the physiological information of each group of rats was recorded at the beginning of the light, as a basis for sleep assessment.
In addition, pure gamma-aminobutyric acid was also administered to the SHR rats, and as described above, the physiological information of SHR rats was detected and recorded as a basis for sleep assessment.
The quality and quantity of sleep in the 24 hours after each test product was fed which was used as the range of sleep assessment:
The quantity of sleep: including the total time of sleep and wakefulness, the number of falling asleep and the average time of each sleep stage (duration) etc., and evaluate the quantity of sleep for each sleep stage; and the sleep of the group fed water is defined as 100%, used for comparing with the other groups fed test products to show the difference in each sleep stage.

NCCCC(=O)O [pure y-aminobutyric acid, γ-aminobutyric acid]
quality and quantity of sleep (overall comparison of the figures, dose not specified): not helpful for the improvement
sleep quality of rats [1]: not helpful to increase the sleep quality
sleep time [1]: can not increase sleep time
